Among the data in ChEMBL document CHEMBL3244235, “Relationships between opiate receptor binding and analgetic properties of prodine-type compounds” (1977) are ED50 and inhibition values, retold here.

SMILES strings stand for the structures. Calls of active or inactive are those of the source. No cut-off for these calls is given here.

The first test has as its system Mus musculus. Put plainly: Analgesic activity in sc dosed mouse by hot plate method. It is filed as functional.
`CCC(=O)O[C@]1(c2ccccc2)CCN(C)C[C@H]1C.Cl` (relative stereo) showed an ED50 of 0.18 mg/kg.

In turn, `C=CCC1CN(C)CCC1(OC(=O)CC)c1ccccc1.Cl` (configuration not stated) came in with a median effective dose (ED50) of 0.03 mg/kg. In turn, `CCC(=O)O[C@]1(c2ccccc2)CCN(C)C[C@H]1CC.Cl` (relative stereo) came in with an ED50 of 3.5 mg/kg. `CCCCCC[C@@H]1CN(C)CC[C@]1(OC(=O)CC)c1ccccc1.Cl` (relative stereo) came in with an ED50 of 54.4 mg/kg.

The molecule `CCC(=O)O[C@]1(c2ccccc2)CCN(C)C[C@@H]1C.Cl` (relative stereo) displayed an ED50 of 0.92 mg/kg. The molecule `CN1CC[C@]23c4c5ccc(O)c4O[C@H]2[C@@H](O)C=C[C@H]3[C@H]1C5.Cl` [MORPHINE HYDROCHLORIDE] came in with an ED50 of 1.2 mg/kg. The same measure, in the same setting: next, `CCCCCC[C@H]1CN(C)CC[C@]1(OC(=O)CC)c1ccccc1.Cl` (relative stereo): 80 mg/kg; `CCC(=O)O[C@]1(c2ccccc2)CCN(C)C[C@@H]1CC.Cl` (relative stereo): 0.4 mg/kg. In the case of `C=CC[C@H]1CN(C)CC[C@]1(OC(=O)CC)c1ccccc1.Cl` (relative stereo), the ED50 came to 0.09 mg/kg. On the same count and under the same terms, the value for `C=CC[C@@H]1CN(C)CC[C@]1(OC(=O)CC)c1ccccc1.Cl` (relative stereo) was 11.7 mg/kg.

In the next test the target is T1, Opioid receptor (Rattus norvegicus) (UniProt P33533+P34975+P33535). Put plainly: Displacement of nonspecific [3H]dihydromorphine from opiate receptor in rat brain homogenates at 10^-5 M after 10 mins by scintillation counting. It is filed as tissue-based.
T1 sequence (P33533 whole entry, looked up): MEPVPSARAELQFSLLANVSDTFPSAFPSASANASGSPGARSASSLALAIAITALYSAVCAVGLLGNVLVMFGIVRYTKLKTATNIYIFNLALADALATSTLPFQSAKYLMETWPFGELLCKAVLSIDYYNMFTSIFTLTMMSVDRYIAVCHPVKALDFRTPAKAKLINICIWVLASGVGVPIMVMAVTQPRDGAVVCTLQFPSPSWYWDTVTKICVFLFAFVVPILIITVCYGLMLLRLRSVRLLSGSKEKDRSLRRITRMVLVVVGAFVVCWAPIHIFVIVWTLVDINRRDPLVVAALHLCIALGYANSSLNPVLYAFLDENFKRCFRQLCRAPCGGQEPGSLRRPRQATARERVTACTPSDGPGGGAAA
T1 sequence (P33535 whole entry, looked up): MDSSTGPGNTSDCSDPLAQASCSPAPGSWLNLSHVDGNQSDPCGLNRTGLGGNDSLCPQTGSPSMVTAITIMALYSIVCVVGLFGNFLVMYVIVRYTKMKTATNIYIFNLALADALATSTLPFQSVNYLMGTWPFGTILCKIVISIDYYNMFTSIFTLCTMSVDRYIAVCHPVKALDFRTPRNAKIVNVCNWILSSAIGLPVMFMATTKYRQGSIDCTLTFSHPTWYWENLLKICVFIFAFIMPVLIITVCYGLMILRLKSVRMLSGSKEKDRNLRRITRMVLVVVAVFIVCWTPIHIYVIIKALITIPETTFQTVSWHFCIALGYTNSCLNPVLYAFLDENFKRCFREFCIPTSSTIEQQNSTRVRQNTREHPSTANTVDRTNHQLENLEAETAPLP
T1 sequence (P34975 whole entry, looked up): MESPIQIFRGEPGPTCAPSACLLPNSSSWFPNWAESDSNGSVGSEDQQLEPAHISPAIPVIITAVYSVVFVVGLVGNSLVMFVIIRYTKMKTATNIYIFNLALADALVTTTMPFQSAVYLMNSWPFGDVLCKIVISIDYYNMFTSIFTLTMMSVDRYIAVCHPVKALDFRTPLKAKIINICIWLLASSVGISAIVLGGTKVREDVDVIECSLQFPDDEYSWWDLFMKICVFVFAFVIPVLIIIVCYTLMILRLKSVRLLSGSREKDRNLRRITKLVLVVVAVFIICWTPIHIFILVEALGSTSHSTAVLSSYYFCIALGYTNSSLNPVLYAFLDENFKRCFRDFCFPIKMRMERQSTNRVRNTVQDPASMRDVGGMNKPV
As for `CCCCCC[C@H]1CN(C)CC[C@]1(OC(=O)CC)c1ccccc1.Cl` (relative stereo), the inhibition entry is “Active”.

Another test has as its target T1, Opioid receptor (Rattus norvegicus). Nature of the test: Displacement of specific [3H]dihydromorphine from opiate receptor in rat brain homogenates at 10^-5 M after 10 mins by scintillation counting. Type of test: tissue-based.
Take `CCCCCC[C@H]1CN(C)CC[C@]1(OC(=O)CC)c1ccccc1.Cl` (relative stereo): the inhibition entry is “Active”.

As usually defined, the ED50 is the dose that gives a 50% effect, or the effect in half of the subjects. A low value points to greater potency.
